{"source": "patent US20180221487A1", "about": "“NOVEL PROTEIN TRANSFECTION COMPOSITIONS AND USES THEREOF” (Chang Gung Memorial Hospital, Linkou, priority 2017, published 2018)", "tested_on": "human ovarian cancer cells (MDAH2774)", "test": "Protein transfection, immunofluorescent staining / confocal microscopy", "type": "cell-based", "conditions": "transfected using 20-30 mM HEPES buffer", "experimental": "Immunofluorescent staining procedure: After protein transfection is completed, the cells in the culture dish were washed three times with phosphate buffered saline (PBS) and fixed with 4% paraformaldehyde for 20 min. The cells were washed again with PBS, perforated with 0.1% Triton X-100 for 5 min, and blocked with 10% BSA for 30 min. For Alexa Fluor 488 anti-mouse IgGs, cells were stained with DAPI for 10 min. For B23, histone 1 or GAPDH antibody transfection, cells were stained with Alexa Fluor 488 or 546 anti-mouse IgG antibodies for 30 min and then stained with DAPI. For rhSTIP1 proteins or Flag-Rev peptides transfection, cells were stained with anti-v5 or anti-flag antibodies, respectively, and then stained with Alexa Fluor 488 anti-mouse IgG and DAPI. All images were detected by confocal microscopes (Leica, Wetzlar, Germany). The fluorescent signals were analyzed and quantified by Q-Win software (Leica, Wetzlar, Germany).\nFIG. 1 schematically illustrates the protein transfection procedure. Briefly, the protein of interest and a protein transfection composition, such as HEPES buffer, were mixed and incubated for about 15 min to about 30 min to form a mixture (Panel A). Cells to be transfected were replaced in a minimal essential medium (Panel B). The mixture in Panel A was added to the cells in Panel B and incubated at 37° C. for about 4 to about 24 hours (Panel C). The protein transfection efficiency can be analyzed using immunofluorescent staining or flow cytometry (Panel D).\nAn in vitro evaluation of the optimal protein transfection condition was performed. According to the steps in FIG. 1. rhSTIP1 was incubated with HEPES buffers of different concentrations (5 or 20 mM) or Opti-MEM (control) at room temperature for about 15 minutes to form the protein mixtures to transfect human ovarian cancer cells. The mixtures were added to the cell culture dish comprising Opti-MEM and incubated at 37° C. for about 4 to about 24 hours.\nDifferent amounts of Alexa Fluor® 488 anti-mouse IgG (0, 2, 4, 8, or 16 μg) were incubated with 20 mM HEPES buffer and mixed with ovarian (MDAH2774) cancer cells in Opti-MEM.\nAlexa Fluor 488 anti-mouse IgG antibodies were mixed with 20 mM HEPES to form a mixture. […] Protein transfection efficiency was assessed using confocal fluorescent microscope.\nThe following proteins were incubated with Opti-MEM (control group) or 20-30 mM HEPES buffer to transfect ovarian cancer cells (MDAH2774 or MOSEC) or endometrial cancer cells: Alexa Fluor 488-conjugated, anti-mouse IgG antibody (about 150 kDa), anti-B23 antibody, anti-histone 1 antibody, anti-STIP1 antibody, rhSTIP1 protein (62.6 kDa), Flag-Rev peptide (<5 kDa) and FITC-Rev peptide (<5 kDa). […] Protein transfection efficiency was assessed by staining the transfected cancer cells with Alexa Fluor 488 or 594 anti-mouse IgG antibodies (for Alexa Fluor 488-conjugated anti-mouse IgG antibody, anti-B23 antibody, anti-histone 1 antibody, anti-STIP1 antibody), v5 antibody (for rhSTIP1), or anti-Flag antibody (for Flag-Rev peptide), and fluorescent signals were analyzed with confocal microscopy.\nThe protein transfection efficiency of HEPES was compared to other commercial reagents, such as PULsin™, ProteoJuice™, Pro-Ject™, Xfect™, and BioPORTER®. […] The transfected ovarian cancer cells were stained with Alexa Fluor 488 anti-mouse IgG antibodies and protein transfection efficiency was assessed by confocal fluorescent microscopy."}
{"substance": "rhSTIP1: v5-tagged recombinant human STIP1 protein (BiP-STIP1-V5-His), 62.6 kDa", "values": [{"measurement": "fluorescent signal of transfected protein (confocal microscopy)", "value": "detected"}]}
